Experimental data taken from paper PMC11567786 (ACS chemical biology, 2024).

How the values were obtained:
Sm-EboD [1] = biological target: T1, Sm-EboD (Sporocytophaga myxococcoides, UniProt P0DY70); assay: large-scale reaction, HR-MS, 1D and 2D NMR of isolated product; assay type: biochemical; settings: NAD+, Co2+; Tris-HCl pH 7.5; 37°C
T1 sequence (P0DY70 1-387): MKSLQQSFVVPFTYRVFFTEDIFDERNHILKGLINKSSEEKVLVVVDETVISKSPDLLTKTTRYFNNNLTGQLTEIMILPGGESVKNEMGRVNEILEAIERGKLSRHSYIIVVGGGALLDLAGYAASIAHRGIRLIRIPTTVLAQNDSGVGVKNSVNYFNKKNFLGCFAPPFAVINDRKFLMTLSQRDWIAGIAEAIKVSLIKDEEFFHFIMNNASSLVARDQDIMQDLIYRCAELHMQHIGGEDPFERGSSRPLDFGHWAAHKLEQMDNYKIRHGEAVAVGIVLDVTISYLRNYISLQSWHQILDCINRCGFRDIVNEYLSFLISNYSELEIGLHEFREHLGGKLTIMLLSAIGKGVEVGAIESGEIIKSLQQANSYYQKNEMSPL

Sm-EboD [2] = biological target: T1, Sm-EboD; assay: TLC, product formation; assay type: biochemical; settings: NAD+, Co2+; Tris-HCl pH 7.5; 37°C

Structure (SMILES) | large-scale reaction, HR-MS, 1D and 2D NMR of isolated product (Sm-EboD [1]) | TLC, product formation (Sm-EboD [2])
O=C1C[C@@H](O)[C@@H](O)[C@@H](O)[C@@H]1O [DEI, 2-deoxy-4-epi-scyllo-inosose] | revealed the identity of the compound to be 2-deoxy-4-epi-scyllo-inosose (DEI) | –
O=P(O)(O)OC[C@H]1OC(O)[C@@H](O)[C@@H](O)[C@@H]1O (some centres unmarked) [Man6P] | – | gave the same product with an even better conversion rate
